Measured values published in patent US9828344B2, “Inhibitors of the notch signaling pathway and secretion for use in medicine” (Leibniz-Institut für Altersforschung Fritz-Lipmann-Institut …, priority 2012, dated 2017).
Peptide text beside a SMILES is read from it. * marks the point of attachment. Cbz = O=C(OCc1ccccc1)*

Tests used:
NotchΔE-EGFP [1] = assay: cells; format: cell-based; conditions: for activity in NotchΔE-EGFP cells (enuc/nuc ratios): SAR and prior-art comparison, FIG. 5a/5b; for change of reporter localization quantified by automated microscopy: assay validation, monensin 6 h dose-dependent, MG132 1 μM 16 h
Description: To identify novel regulatory factors involved in Notch trafficking/processing an image-based high content screen was set up. […] NotchΔE-EGFP is a direct substrate for γ-secretase at the PM, and under physiological conditions is proteolytically processed to NICD-EGFP that translocates into the nucleus (for scheme see FIG. 1b), resulting in a strong nuclear EGFP-staining in steady state^15 (FIG. 1d). […] Importantly, changes in subcellular localization of the reporter are amenable to quantitation by automated microscopy^15. Accordingly, reporter fluorescence was determined in the nucleus (nuc) and in a ring around the nucleus (enuc), and the ratio enuc/nuc was evaluated (schematized in FIG. 1c). Thereafter, the assay design was functionally validated. […] The assay also reliably detected trafficking defects in the secretory pathway. […] Taken together, the assay was validated for reliably detecting concentration and time dependent changes in trafficking and processing of the Notch reporter.
Cells were seeded in 96-well plates at a density of 5000 cells/well in 100 μl medium. The next day, 100 μl medium containing the respective test compounds was added. Cells were incubated for 16 h, fixed and processed for automated microscopy. For the putative gamma-secretase inhibitors the enuc intensity was divided by the DAPT control and for the trafficking inhibitors normalized percentage inhibition against DAPT/DMSO controls of log 2 transformed nuc/enuc ratios were calculated. Relative activity values were read into “R” (http://www.r-project.org/) and EC50 estimates were calculated using four-parameter log-logistic fit with the package “drc”^51.
Images were acquired on an ArrayScan VTi automated microscope (ThermoFisher) and numerical data were extracted with the Compartmental Analysis BioApplication of the bundled software suite. Compound screening raw data were collected at the FMP and data transformation was performed according to standard procedures (ref 17 and supp. Refs 6-7).

zebrafish embryos = assay: Zebrafish embryo Notch phenotype (somites, ngn1 qPCR and ISH); format: in vivo, zebrafish Danio rerio
Procedure: Cells were incubated with DAPT or 10 μM of the indicated compounds (50 μM in case of FLI-15 and -20) and after 16 h a luciferase assay was performed. […] Changes in relative gene expression levels (fold change) relative to the expression levels in DMSO controls are represented as the mean+/−SD, asterisks indicate p<0.01. Each measurement was taken from two independent samples. Each reaction was measured in triplicate. Changes in the relative expression of ngn1 were standardized to the expression of the housekeeping gene ef1a at 20 hpf. c) ISH with riboprobes specific for ngn1 was performed on dechorionated stage 4 hpf zebrafish embryos. Anterior is to the left, dorsal to the top. Magnifications of the somite region (small box) are shown. Arrows indicate larger ngn1 clusters or stronger ngn1 staining. s, sensory neurons; i, intermediate neurons; m, motor neurons.
FIG. 11: Selected compounds affect somite formation and neurogenesis in vivo in zebrafish embryos. a) Lateral view of typical representative phenotypes induced by DAPT treatment, which were used as a reference to score the effect of compounds. […] Images were taken at 24 hpf. b) Pie chart showing the cumulative relative frequency of the phenotypes in a) at 24 hpf in embryos treated with 20, 50 and 100 iM of the indicated compounds. c) ISH with riboprobes specific for ngn1 was performed on dechorionated stage 4 hpf zebrafish embryos. Anterior is to the left, dorsal to the top. Magnifications of the developing head (box) are shown. Arrows indicate larger ngn1 clusters or stronger ngn1 staining. t, telencephalon; p, protectum; h, hindbrain; d, diencephalon; tg, tegmentum; vrc, ventral rostral cluster.
We wanted to test whether the results obtained with the NotchΔE-EGFP construct are relevant for endogenous Notch signaling. Therefore we made use of C2C12 cells, a well established model for muscle development that expresses endogenous Notch^21,22. After stimulating endogenous Notch signaling by transfecting the Notch ligand Delta, Notch activity was measured by a luciferase assay using a Notch reporter^15 in the presence or absence of compounds (FIG. 4a). […] Next, we tested whether selected compounds would affect Notch signaling in vivo. […] Compounds were added to dechorionated stage 4 hpf zebrafish embryos and the effects were analyzed after 24 h by morphological inspection of somite formation. Phenotypes were ranked to four categories, normal somites, mild somite defects, strong somite defects and developmental delay. […] As an additional parameter we decided to analyze Notch-dependent genes involved in neurogenesis. Primary neurogenesis in zebrafish involves the selection of neuroblasts (repressed by Notch) from proneural clusters (Notch expressing cells), a process regulated in a negative manner by Notch-dependent lateral inhibition^25. Accordingly, neuroblast cells that express the neuronal specification factor neurogenin (ngn1^26) became more abundant when Notch signaling was impaired, for instance upon DAPT treatment^23,27. qPCR analyses on mRNA extracted from equivalent sets of embryos was performed for ngn1 expression (FIG. 4b). […] To confirm the data obtained by qPCR, whole-mount in-situ hybridizations (ISH) using an ngn1 specific riboprobe were performed (FIG. 4c, FIG. 11c). […] Taken together, FLI-06, -14, -15, -19 and -20 inhibited endogenous Notch signaling in vitro and in vivo, corroborating the NotchΔE-EGFP reporter data.
Embryos were obtained from natural spawning of wild-type TüAB strain adults, raised and staged according to supp. Ref 14. DAPT and compounds were applied at 50 iM in E3 embryo medium to zebrafish embryos with chorions torn but not completely removed from sphere stage until the stage of analysis, according to ref 23. Control embryos were mock treated with the same concentration of DMSO dissolved in E3 embryo medium. […]

γ-secretase = assay: In vitro γ-secretase assay with isolated membranes; format: biochemical; conditions: 37° C.
Procedure: FIG. 3: Effect of compounds on NotchΔE-EGFP, APP and Klotho trafficking and processing. a) HEK293 stably expressing APPswe or Klotho (KI) were incubated with DAPT or compounds (10 μM) for 16 h. Media were collected, cells lysed and both assayed by Western blotting using indicated antibodies. m, mature; im, immature; s, shedded ectodomain; CTF, C-terminal fragment. b) Membranes from HeLa-NotchΔE-EGFP and APPswe cells were isolated and subjected to a γ-secretase in vitro assay in the presence of DAPT or compounds as indicated. NICD and AICD were detected by Western Blotting using antibodies against the C-terminus of APP (top) or antibodies specific for NICD (bottom). c) Quantitation from 5 independent experiments.
To test whether FLI-06 affected other membrane proteins, Klotho, a type I protein processed like APP and Notch^20, was analyzed. […] To analyze γ-secretase activity, in vitro assays using isolated membranes were performed (FIG. 3b, c). Production of NICD-EGFP and AICD (APP intracellular domain) were assayed. Both were produced in vitro at 37° C. but not at 4° C., and their production was inhibited by DAPT.
For assaying AICD formation, membranes of HEK293 cells stably expressing APP with the Swedish mutation were isolated and incubated for 4 h at 37° C. according to Sastre et al.^52. For assaying NICD formation, membranes from HeLa NotchΔE-EGFP cells were mixed with membranes from HeLa NotchΔE-EGFP cells that were pre-treated with 10 μM DAPT overnight to enrich substrate. After incubation samples were loaded onto either 8% SDS-PA gels (NICD) or 10-20% Tris-Tricine gels (AICD), blotted and probed with cleaved-Notch antibody or antibody 6687 against APP C-terminus^53. Chemoluminescence was quantified on a LAS-4000 (Fuji) with MultiGauge software.

NotchΔE-EGFP [2] = assay: Fluorescence microscopy of reporter localization in HeLa NotchΔE-EGFP cells; format: cell-based; conditions: 10 μM compound, 24 h
Procedure: FIG. 10: Phenotypes of Notch inhibitors are fully reversible. HeLa NotchΔE-EGFP cells plated in LabTek coverglass were incubated for 18 h with 10 iM of indicated compounds, washed and incubated for indicated times in cell culture medium. Cells were imaged by live-microscopy. […] Scalebar, 10 im.
For a detailed analysis of subcelluar distribution of NotchΔE/NICD the resolution of the HCS images was not sufficient. Therefore, the reporter cell line was plated on coverslips and incubated with 10 μM of individual compounds from the final hit list. After 24 h the localization of NotchΔE-EGFP/NICD-EGFP was determined by fluorescence microscopy. […] (FIG. 8).
Immunofluorescence stainings were made using standard procedures^55. Imaging was performed on a Zeiss Axiovert200 or an Axio Imager, using 63× 1.4NA objectives and Zeiss Axiovision software. For live-imaging cells were plated on Lab-Tek chambered coverglass (Thermo-Fisher). Images were assembled and processed using Adobe Photoshop. For displaying weakly stained ER-tubules/sheets non-linear changes in gamma-settings were used.

CC1=C(C(=O)OC2CCCCC2)C(c2ccc([N+](=O)[O-])cc2)C2=C(CC(C)(C)C/C2=N\OCC(=O)O)N1 (centres unmarked) [compound 6, E-2-(((3′-Cyclohexyloxycarbonyl-4″-nitrophenyl-2′,7′,7′-trimethyl-1′,4′,5′,6′,7′,8′-hexahydroquinoline-5′-ylidene)amino)oxy)acetic acid]
activity in NotchΔE-EGFP cells (enuc/nuc ratios) (NotchΔE-EGFP [1]): entirely inactive

C[C@H](NC(=O)Cc1cc(F)cc(F)c1)C(=O)N[C@H](C(=O)OC(C)(C)C)c1ccccc1 [DAPT, reference compound]
cell viability by visual inspection (NotchΔE-EGFP [1]): viable at all times | t1/2 of decrease of NICD-EGFP fluorescence in the nucleus (NotchΔE-EGFP [1]; 1 μM DAPT): 4.7 ± 1.0 h | t9/10 of decrease of NICD-EGFP fluorescence in the nucleus (NotchΔE-EGFP [1]; 1 μM DAPT): 8.6 ± 2.9 h | ngn1 positive cell clusters in the developing brain (ISH) (zebrafish embryos; 50 μM, compared to DMSO controls): differentially expanded | ngn1 positive cell clusters along the spinal cord (ISH) (zebrafish embryos; 50 μM, compared to DMSO-treated control embryos): expanded and denser clusters of ngn1 positive cells | ngn1 mRNA levels (qPCR) (zebrafish embryos; 50 μM, relative to DMSO controls): significantly increased | somite/morphological phenotype (zebrafish embryos; embryos treated from 4-6 hpf, scored at 24 hpf): either defective somitogenesis (mild), head and trunk malformation (strong) or developmental delay (delayed) | NICD-EGFP and AICD production in isolated membranes (γ-secretase): inhibited | localization of NotchΔE-EGFP/NICD-EGFP (NotchΔE-EGFP [2]): accumulated at the PM

CCCCCOC(=O)C1=C(C)NC2=C(C(=O)CC(C)(C)C2)C1c1ccc([N+](=O)[O-])cc1 (centres unmarked) [ST216093]
activity in NotchΔE-EGFP cells (enuc/nuc ratios) (NotchΔE-EGFP [1]): show the desired activity

COCCOC(=O)C1=C(C)NC2=C(C(=O)CC(c3ccccc3)C2)C1c1ccccc1F (centres unmarked) [C4]
activity in NotchΔE-EGFP cells (enuc/nuc ratios) (NotchΔE-EGFP [1]): no activity

CC[C@@]1([C@@H]2O[C@@H]([C@H]3O[C@@](O)(CO)[C@H](C)C[C@@H]3C)C[C@@H]2C)CC[C@H]([C@]2(C)CC[C@]3(C[C@H](O)[C@@H](C)[C@@H]([C@@H](C)[C@@H](OC)[C@H](C)C(=O)O)O3)O2)O1 [monensin]
change of reporter localization quantified by automated microscopy (NotchΔE-EGFP [1]): blocking the anterograde transport of NotchΔE-EGFP

COCCOC(=O)C1=C(C)NC2=C(C(=O)CC(c3ccc(Cl)cc3)C2)C1c1ccccc1F (centres unmarked) [C3]
activity in NotchΔE-EGFP cells (enuc/nuc ratios) (NotchΔE-EGFP [1]): no activity

COCCOC(=O)C1=C(C)NC2=C(C(=O)CC(c3ccccc3OC)C2)C1c1cccc(O)c1 (centres unmarked) [HPI-1]
activity in NotchΔE-EGFP cells (enuc/nuc ratios) (NotchΔE-EGFP [1]): no activity

CC(C)C[C@@H](C=O)NC(=O)[C@H](CC(C)C)NC(=O)[C@H](CC(C)C)NC(=O)OCc1ccccc1 [MG132] (Cbz-Leu-Leu-Leu-aldehyde)
change of reporter localization quantified by automated microscopy (NotchΔE-EGFP [1]): accumulation of NICD in the nucleus

COC(=O)C1=C(C)NC2=C(C(=O)CC(c3ccc(Cl)cc3)C2)C1c1ccccc1F (centres unmarked) [C5]
activity in NotchΔE-EGFP cells (enuc/nuc ratios) (NotchΔE-EGFP [1]): no activity
